The values that follow come from patent publication US12721832B2, “Anti-senescence plant polyphenol drug downregulating senescence-related secretory phenotype and use thereof” (BYHEALTH CO., LTD., priority 2021, dated 2026).

The subject of data set [1] is senescent PSC27 cells. Briefly: RNA-seq / GSEA expression profile of BLEO-induced senescent PSC27 cells. It counts as cell-based, human. The protocol: Whole-transcriptome sequencing was performed on the primary human prostate stromal cell line PSC27 under different treatment conditions. Total RNA samples were obtained from stromal cells. Their integrity was verified by Bioanalyzer 2100 (Agilent), RNA was sequenced by Illumina HiSeq X10, and gene expression levels were quantified by software package rsem (https://deweylab.github.io/rsem/). Briefly, rRNA was depleted from RNA samples with the RiboMinus Eukaryote Kit (Qiagen, Valencia, Calif., USA); and according to the manufacturer's instructions, TruSeq Stranded Total RNA Preparation Kits (Illumina, San Diego, Calif.), USA) was used to construct a strand-specific RNA-seq library before deep sequencing.
Paired-end transcriptomic reads were mapped to a reference genome (GRCh38/hg38), and reference-annotation was performed from Gencode v27 using the Bowtie tool. Duplicate reads were identified using the picard Tools (1.98) script to mark duplicates (https://github.com/broadinstitute/picard), and only non-duplicate reads were retained. Reference splice junctions were provided by reference transcriptome (Ensembl Build 73). FPKM values were calculated with Cufflinks, and Cufflinks maximum likelihood estimation function was used to call differential gene expression. Genes with significant changes in expression were defined by false discovery rate (FDR)-corrected P-values<0.05, and only Ensembl Genes 73 with status “Known” and biotype “coding” were used for downstream analysis.
Next, Trim Galore (v0.3.0) (http://www.bioinformatics.babraham.ac.uk/projects/trim_galore/) was used to trim the reads, while the quality assessment was carried out by using FastQC (v0.10.0) (http://www.bioinformatics.bb src.ac.uk/projects/fastqc/). Subsequently, a preliminary analysis of the raw data was perform on a free online platform, Majorbio I-Sanger Cloud Platform (www.i-sanger.com), by using DAVID bioinformatics platform (https://david.ncifcrf.gov/) and Ingenuity Pathways Analysis (IPA) program (http://www.ingenuity.com/index.html), the raw data were deposited in the NCBI Gene Expression Omnibus (GEO) database with access code GSE156448.
Based on the data obtained from the preliminary analysis of RNA-seq, analyzed and compared each differentially expressed significant gene, the genes were sorted using the “wald statistics” obtained from DESeq2, GSEA was performed on the sorting lists of all planning gene sets available in MSigDB (http://software.broadinstitute.org/gsea/msigdb). DESeq2 independent filtering was based on the average of normalized read counts to select genes with very low expression levels. The GSEA signature of SASP was as described in our previous publication (Zhang et al., 2018a).

The subject of data set [2] is PSC27 cells. Nature of the data set: Population doubling test of PSC27. It counts as cell-based, human. The protocol:
The cells were damaged by BLEO at passage 10 (p10), and then PCC1 was added to the medium at day 8. The effect of PCC1 on cell proliferation potential is determined by comparative analysis of the population doubling (PD) of CTRL group, BLEO group, PCC1 group and BLEO/PCC1 group. ^, P>0.05; ***, P<0.001.

For data set [3], the system named is aged C57BL/6 mice. Nature of the data set: Post-mortem pathological examination of aged mice. It counts as in vivo. The settings on record: end of life. The protocol:
The researchers checked the cages daily and removed dead mice from the cages. Within 24 hours of animal death, cadavers (abdominal cavity, thoracic cavity, and skull) were opened and kept separately in 10% formalin for at least 7 days. Decomposed or destroyed bodies were excluded. The preserved cadavers were transported to the dedicated autopsy site for pathological examination. Tumor burden (sum of different types of tumors per mouse), disease burden (sum of different histopathological changes in major organs per mouse), severity of each lesion and inflammation (lymphocyte infiltration) were assessed.

The mark [4] stands for this setting: BLEO/PCC1 vs BLEO group, fold change 2.0, P<0.01.

As to `Oc1cc(O)c2c(c1)O[C@H](c1ccc(O)c(O)c1)[C@H](O)[C@H]2c1c(O)cc(O)c2c1O[C@H](c1ccc(O)c(O)c1)[C@H](O)[C@H]2c1c(O)cc(O)c2c1O[C@H](c1ccc(O)c(O)c1)[C@H](O)C2` [PCC1, procyanidin C1], in data set [1] (setting [4]), the “number of genes significantly down-regulated” value is 4406 genes and the “number of genes up-regulated” value is reported as 2766 genes. Also, the “expression of SASP factors in senescent cells after treatment” value in data set [1] (RNA-seq heatmap) is recorded as “generally decreased”. Besides, the “GSEA molecular signatures of SASP expression or NF-κB activation” value in data set [1] (senescent cells after PCC1) was “significant repression”. Also, the “population doubling (PD) ability” value in data set [2] (BLEO and PCC1 combined treatment vs BLEO group) was “significantly increased”. Also, the “effect on PD of proliferating cells” value in data set [2] (PCC1 alone, proliferating cells) is recorded as “did not appear to affect”. In addition, in data set [3], the “prevalence of several age-related diseases and tumor burden at autopsy vs vehicle” value is “did not show statistical differences”.
